Measurements published in US6706740B2, “Fungicidal heterocyclic aromatic amides and their compositions, methods of use and preparation” (Dow AgroSciences LLC, priority 1999, dated 2004).

System: Erysiphe graminis—ERYSGT
Assay: Powdery Mildew of Wheat, in vivo whole plant, 24 Hour Protectant
Details: Erysiphe, 24 h, read-out: ERYSGT in vivo 1 Day Protectant

Structure (SMILES) | pest or weed control at 100 ppm [%]
COc1ccnc(C(=O)N[C@H]2COC(=O)[C@H](Cc3ccccc3)[C@@H](OC(=O)C(C)C)[C@H](C)OC2=O)c1OC(=O)CCc1ccccc1 [Compound 650] | < 25

Same assay, conditions: Erysiphe; 100 ppm spray, 24 hour protectant, wheat; control of fungal infection vs untreated plants; read-out: ERYSGT in vivo 1 Day Protectant

Structure (SMILES) | pest or weed control at 100 ppm [%]
Cc1cccc(CNC(=O)c2ncccc2O)c1 [Compound 222] | < 25

Same assay, conditions: Erysiphe; 100 ppm spray, wheat, 24 hour protectant, % control of fungal infection vs untreated plants; read-out: ERYSGT in vivo 1 Day Protectant

Structure (SMILES) | pest or weed control at 100 ppm [%]
COc1ccc(C(=O)Oc2c(OC)ccnc2C(=O)N[C@H]2COC(=O)[C@H](Cc3ccccc3)[C@@H](OC(=O)C(C)C)[C@H](C)OC2=O)cc1 [Compound 634] | < 25

System: Mycosphaerella graminicola (Septoria tritici—SEPTTR)
Assay: In vitro fungal growth inhibition, Mycosphaerella graminicola (SEPTTR)
Format: cell-based
Details: Zymoseptoria tritici, read-out: SEPTTR in vitro Growth Inhibition

Structure (SMILES) | inhibition at 25 ppm [%]
COc1ccnc(C(=O)N[C@H]2COC(=O)[C@H](Cc3ccccc3)[C@@H](OC(=O)C(C)C)[C@H](C)OC2=O)c1OC(=O)CCc1ccccc1 [Compound 650] | < 80

Same assay, conditions: Zymoseptoria tritici; 25 ppm in growth medium; read-out: SEPTTR in vitro Growth Inhibition

Structure (SMILES) | inhibition at 25 ppm [%]
COc1ccc(C(=O)Oc2c(OC)ccnc2C(=O)N[C@H]2COC(=O)[C@H](Cc3ccccc3)[C@@H](OC(=O)C(C)C)[C@H](C)OC2=O)cc1 [Compound 634] | < 80
Cc1cccc(CNC(=O)c2ncccc2O)c1 [Compound 222] | < 80

System: Rhizoctonia solani (RHIZSO)
Assay: microbe, parasite or virus in culture
Format: cell-based
Details: Rhizoctonia solani, read-out: RHIZSO in vitro Growth Inhibition

Structure (SMILES) | inhibition at 25 ppm [%]
COc1ccc(C(=O)Oc2c(OC)ccnc2C(=O)N[C@H]2COC(=O)[C@H](Cc3ccccc3)[C@@H](OC(=O)C(C)C)[C@H](C)OC2=O)cc1 [Compound 634] | < 80
Cc1cccc(CNC(=O)c2ncccc2O)c1 [Compound 222] | < 80
COc1ccnc(C(=O)N[C@H]2COC(=O)[C@H](Cc3ccccc3)[C@@H](OC(=O)C(C)C)[C@H](C)OC2=O)c1OC(=O)CCc1ccccc1 [Compound 650] | < 80

System: Phytophthora infestans—PHYTIN
Assay: whole plant or invertebrate
Format: in vivo
Details: Phytophthora, in Solanum lycopersicum, 24 h, read-out: PHYTIN in vivo 1 Day Protectant

Structure (SMILES) | pest or weed control at 100 ppm [%]
COc1ccc(C(=O)Oc2c(OC)ccnc2C(=O)N[C@H]2COC(=O)[C@H](Cc3ccccc3)[C@@H](OC(=O)C(C)C)[C@H](C)OC2=O)cc1 [Compound 634] | < 25
Cc1cccc(CNC(=O)c2ncccc2O)c1 [Compound 222] | < 25
COc1ccnc(C(=O)N[C@H]2COC(=O)[C@H](Cc3ccccc3)[C@@H](OC(=O)C(C)C)[C@H](C)OC2=O)c1OC(=O)CCc1ccccc1 [Compound 650] | < 25

System: Ustilago maydis (USTIMA)
Assay: microbe, parasite or virus in culture
Format: cell-based
Details: Mycosarcoma maydis, read-out: USTIMA in vitro Growth Inhibition

Structure (SMILES) | inhibition at 25 ppm [%]
COc1ccc(C(=O)Oc2c(OC)ccnc2C(=O)N[C@H]2COC(=O)[C@H](Cc3ccccc3)[C@@H](OC(=O)C(C)C)[C@H](C)OC2=O)cc1 [Compound 634] | < 80
Cc1cccc(CNC(=O)c2ncccc2O)c1 [Compound 222] | < 80
COc1ccnc(C(=O)N[C@H]2COC(=O)[C@H](Cc3ccccc3)[C@@H](OC(=O)C(C)C)[C@H](C)OC2=O)c1OC(=O)CCc1ccccc1 [Compound 650] | < 80

System: Leptosphaeria nodorum—LEPTNO
Assay: Glume Blotch of Wheat, in vivo whole plant, 24 Hour Protectant
Details: 100 ppm spray, wheat, 24 hour protectant, % control of fungal infection vs untreated plants

Structure (SMILES) | LEPTNO in vivo 1 Day Protectant
COc1ccc(C(=O)Oc2c(OC)ccnc2C(=O)N[C@H]2COC(=O)[C@H](Cc3ccccc3)[C@@H](OC(=O)C(C)C)[C@H](C)OC2=O)cc1 [Compound 634] | + +

Same assay, conditions: Leptosphaeria; 100 ppm spray, 24 hour protectant, wheat; control of fungal infection vs untreated plants; read-out: LEPTNO in vivo 1 Day Protectant

Structure (SMILES) | pest or weed control at 100 ppm [%]
Cc1cccc(CNC(=O)c2ncccc2O)c1 [Compound 222] | < 25

Same assay, conditions: in vivo

Structure (SMILES) | LEPTNO in vivo 1 Day Protectant
COc1ccnc(C(=O)N[C@H]2COC(=O)[C@H](Cc3ccccc3)[C@@H](OC(=O)C(C)C)[C@H](C)OC2=O)c1OC(=O)CCc1ccccc1 [Compound 650] | + +

System: Stagonospora nodorum (Leptosphaeria nodorum—LEPTNO)
Assay: In vitro fungal growth inhibition, Stagonospora nodorum (LEPTNO)
Format: cell-based
Details: Leptosphaeria, read-out: LEPTNO in vitro Growth Inhibition

Structure (SMILES) | inhibition at 25 ppm [%]
COc1ccnc(C(=O)N[C@H]2COC(=O)[C@H](Cc3ccccc3)[C@@H](OC(=O)C(C)C)[C@H](C)OC2=O)c1OC(=O)CCc1ccccc1 [Compound 650] | > 80

Same assay, conditions: Leptosphaeria; 25 ppm in growth medium; read-out: LEPTNO in vitro Growth Inhibition

Structure (SMILES) | inhibition at 25 ppm [%]
COc1ccc(C(=O)Oc2c(OC)ccnc2C(=O)N[C@H]2COC(=O)[C@H](Cc3ccccc3)[C@@H](OC(=O)C(C)C)[C@H](C)OC2=O)cc1 [Compound 634] | < 80
Cc1cccc(CNC(=O)c2ncccc2O)c1 [Compound 222] | < 80

System: Septoria tritici—SEPTTR
Assay: Leaf Blotch of Wheat, in vivo whole plant, 24 Hour Protectant
Details: 100 ppm spray, wheat, 24 hour protectant, % control of fungal infection vs untreated plants

Structure (SMILES) | SEPTTR in vivo 1 Day Protectant
COc1ccc(C(=O)Oc2c(OC)ccnc2C(=O)N[C@H]2COC(=O)[C@H](Cc3ccccc3)[C@@H](OC(=O)C(C)C)[C@H](C)OC2=O)cc1 [Compound 634] | + +

Same assay, conditions: Zymoseptoria tritici, 24 h, 100 ppm spray, 24 hour protectant, wheat; control of fungal infection vs untreated plants; read-out: SEPTTR in vivo 1 Day Protectant

Structure (SMILES) | pest or weed control at 100 ppm [%]
Cc1cccc(CNC(=O)c2ncccc2O)c1 [Compound 222] | < 25

Same assay, conditions: in vivo

Structure (SMILES) | SEPTTR in vivo 1 Day Protectant
COc1ccnc(C(=O)N[C@H]2COC(=O)[C@H](Cc3ccccc3)[C@@H](OC(=O)C(C)C)[C@H](C)OC2=O)c1OC(=O)CCc1ccccc1 [Compound 650] | + +

System: Puccinia recondita—PUCCRT
Assay: Brown Rust of Wheat, in vivo whole plant, 24 Hour Protectant
Details: 100 ppm spray, wheat, 24 hour protectant, % control of fungal infection vs untreated plants

Structure (SMILES) | PUCCRT in vivo 1 Day Protectant
COc1ccc(C(=O)Oc2c(OC)ccnc2C(=O)N[C@H]2COC(=O)[C@H](Cc3ccccc3)[C@@H](OC(=O)C(C)C)[C@H](C)OC2=O)cc1 [Compound 634] | + +

Same assay, conditions: Puccinia; 100 ppm spray, 24 hour protectant, wheat; control of fungal infection vs untreated plants; read-out: PUCCRT in vivo 1 Day Protectant

Structure (SMILES) | pest or weed control at 100 ppm [%]
Cc1cccc(CNC(=O)c2ncccc2O)c1 [Compound 222] | 25 to 74

Same assay, conditions: in vivo

Structure (SMILES) | PUCCRT in vivo 1 Day Protectant
COc1ccnc(C(=O)N[C@H]2COC(=O)[C@H](Cc3ccccc3)[C@@H](OC(=O)C(C)C)[C@H](C)OC2=O)c1OC(=O)CCc1ccccc1 [Compound 650] | + +

System: Phytophthora infestans (PHYTIN)
Assay: microbe, parasite or virus in culture
Format: cell-based
Details: Phytophthora infestans, read-out: PHYTIN in vitro Growth Inhibition

Structure (SMILES) | inhibition at 25 ppm [%]
COc1ccc(C(=O)Oc2c(OC)ccnc2C(=O)N[C@H]2COC(=O)[C@H](Cc3ccccc3)[C@@H](OC(=O)C(C)C)[C@H](C)OC2=O)cc1 [Compound 634] | < 80
Cc1cccc(CNC(=O)c2ncccc2O)c1 [Compound 222] | < 80
COc1ccnc(C(=O)N[C@H]2COC(=O)[C@H](Cc3ccccc3)[C@@H](OC(=O)C(C)C)[C@H](C)OC2=O)c1OC(=O)CCc1ccccc1 [Compound 650] | < 80

System: Magnaporthe grisea (Pyricularia oryzae—PYRIOR)
Assay: microbe, parasite or virus in culture
Format: cell-based
Details: Pyricularia oryzae, read-out: PYRIOR in vitro Growth Inhibition

Structure (SMILES) | inhibition at 25 ppm [%]
COc1ccc(C(=O)Oc2c(OC)ccnc2C(=O)N[C@H]2COC(=O)[C@H](Cc3ccccc3)[C@@H](OC(=O)C(C)C)[C@H](C)OC2=O)cc1 [Compound 634] | < 80
Cc1cccc(CNC(=O)c2ncccc2O)c1 [Compound 222] | < 80
COc1ccnc(C(=O)N[C@H]2COC(=O)[C@H](Cc3ccccc3)[C@@H](OC(=O)C(C)C)[C@H](C)OC2=O)c1OC(=O)CCc1ccccc1 [Compound 650] | > 80
